Measured values published in the CheMixHub viscosity set.

Assay: xn = mol fraction of the nth substance listed

Cc1ccc(C(C)C)c(O)c1 + CC(C)[C@@H]1CC[C@@H](C)C[C@H]1O
Settings | viscosity [mPa·s]
293.15 K, 100 kPa, x1 = 0.333 | 68.78
293.15 K, 100 kPa, x1 = 0.5 | 54.01
298 K, 101 kPa, x2 = 0.2 | 25.3
298 K, 101 kPa, x2 = 0.25 | 26.8
298 K, 101 kPa, x2 = 0.333 | 32
298.15 K, 100 kPa, x1 = 0.333 | 43.86
298.15 K, 100 kPa, x1 = 0.5 | 35.41
303.15 K, 100 kPa, x1 = 0.333 | 29.46
303.15 K, 100 kPa, x1 = 0.5 | 24.33
308.15 K, 100 kPa, x1 = 0.333 | 20.66
308.15 K, 100 kPa, x1 = 0.5 | 17.41
313.15 K, 100 kPa, x1 = 0.333 | 15.01
313.15 K, 100 kPa, x1 = 0.5 | 12.89
318.15 K, 100 kPa, x1 = 0.333 | 11.25
318.15 K, 100 kPa, x1 = 0.5 | 9.84
323.15 K, 100 kPa, x1 = 0.333 | 8.69
323.15 K, 100 kPa, x1 = 0.5 | 7.72

CCCCCCCCCCCC(=O)OCC + CCC1CCCCC1
viscosity [mPa·s], 100 kPa
Settings | x2 = 0.1001 | x2 = 0.1999 | x2 = 0.3 | x2 = 0.3999 | x2 = 0.5001 | x2 = 0.5999 | x2 = 0.7 | x2 = 0.7999 | x2 = 0.9
293.15 K | 3.07 | 2.768 | 2.476 | 2.193 | 1.919 | 1.663 | 1.429 | 1.219 | 1.023
298.15 K | 2.752 | 2.485 | 2.228 | 1.977 | 1.742 | 1.519 | 1.318 | 1.134 | 0.963
303.15 K | 2.479 | 2.251 | 2.027 | 1.808 | 1.597 | 1.402 | 1.222 | 1.057 | 0.901
308.15 K | 2.232 | 2.036 | 1.841 | 1.651 | 1.468 | 1.296 | 1.131 | 0.981 | 0.837
313.15 K | 2.033 | 1.86 | 1.686 | 1.516 | 1.352 | 1.197 | 1.05 | 0.913 | 0.786
318.15 K | 1.87 | 1.716 | 1.561 | 1.406 | 1.258 | 1.119 | 0.987 | 0.864 | 0.745
323.15 K | 1.697 | 1.562 | 1.423 | 1.289 | 1.159 | 1.036 | 0.92 | 0.81 | 0.7

CCOC(=O)CC(=O)OCC + CCC(=O)CC
viscosity [mPa·s], 101 kPa
Settings | x1 = 0.0736 | x1 = 0.1356 | x1 = 0.2458 | x1 = 0.3326 | x1 = 0.4124 | x1 = 0.5158 | x1 = 0.6256 | x1 = 0.7456 | x1 = 0.8626 | x1 = 0.9415
303.15 K | 0.488 | 0.535 | 0.633 | 0.725 | 0.814 | 0.94 | 1.094 | 1.273 | 1.475 | 1.627
308.15 K | 0.45 | 0.493 | 0.58 | 0.658 | 0.742 | 0.859 | 0.999 | 1.162 | 1.341 | 1.478
313.15 K | 0.437 | 0.477 | 0.56 | 0.633 | 0.708 | 0.812 | 0.938 | 1.089 | 1.25 | 1.375
